Assay results reported in ChEMBL document CHEMBL1134717 (Bioorg Med Chem Lett, 2001).

How the values were obtained:
[1] = molecular target: Kappa-type opioid receptor (Cavia porcellus, UniProt P41144); assay: Binding affinity towards guinea pig Opioid receptor kappa 1 using radioligand [3H]U-69593
Mu-type opioid receptor = Mu-type opioid receptor (Cavia porcellus, UniProt P97266); assay: Binding affinity towards Opioid receptor mu 1 of guinea pig brain membranes using radioligand 0.25 nM [3H]DAMGO
Sequence of Mu-type opioid receptor (P97266 whole entry): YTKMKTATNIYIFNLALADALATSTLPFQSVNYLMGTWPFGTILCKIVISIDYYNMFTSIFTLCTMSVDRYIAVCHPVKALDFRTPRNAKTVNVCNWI

Sequence of Kappa-type opioid receptor (P41144 whole entry): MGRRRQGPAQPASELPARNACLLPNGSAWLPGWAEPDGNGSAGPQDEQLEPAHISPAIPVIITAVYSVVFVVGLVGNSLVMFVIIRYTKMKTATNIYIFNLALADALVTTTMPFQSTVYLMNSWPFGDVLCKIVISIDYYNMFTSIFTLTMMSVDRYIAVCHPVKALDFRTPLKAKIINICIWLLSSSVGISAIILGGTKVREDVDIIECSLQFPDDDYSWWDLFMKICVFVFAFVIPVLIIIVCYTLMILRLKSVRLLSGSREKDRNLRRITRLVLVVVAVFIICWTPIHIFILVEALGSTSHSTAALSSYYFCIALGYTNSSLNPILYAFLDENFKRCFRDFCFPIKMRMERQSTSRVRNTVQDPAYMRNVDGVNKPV

SMILES | Ki [1] | Ki (Mu-type opioid receptor)
CN1CC[C@]23c4c5ccc(C(N)=O)c4OC2C(O)C=C[C@H]3[C@H]1C5 (stereo partly drawn) | 2000 nM | 34 nM
CNC(=O)c1ccc2c3c1OC1C(O)C=C[C@H]4[C@@H](C2)N(C)CC[C@]314 (stereo partly drawn) | > 10000 nM | 440 nM
CN(C)C(=O)c1ccc2c3c1OC1C(O)C=C[C@H]4[C@@H](C2)N(C)CC[C@]314 (stereo partly drawn) | > 10000 nM | –
NC(=O)c1ccc2c3c1O[C@H]1C(=O)CC[C@@]4(O)[C@@H](C2)N(CC2CC2)CC[C@]314 | 22 nM | 1.9 nM
C[C@H]1[C@H]2Cc3ccc(O)cc3[C@]1(C)CCN2CC1CC1 [CYCLAZOCINE] | 0.18 nM | –
